Reference: patent US20250107543A1, “TREATMENT OF AGRICULTURAL, FOOD AND RELATED PRODUCTS FOR ELIMINATING CONTAMINANTS AND ENCHANCING SHELF-LIFE” (priority 2022, published 2025)

Columns and labels:
aerobic micro-organisms = assay: Aerobic/Total Plate Count of whole red chilli after pre-conditioning, trioxygen and heated air; conditions: whole red chilli 12 kg's
Method: (§1) This experiment illustrates the treatment of aerobic micro-organisms, yeast, mould, coliform, E. coli, Salmonella and fat soluble metabolites contaminated whole red chilli.
(§2) The data presented in Table-2 illustrate the efficacy of the present disclosure in detoxifying contaminated whole red chillies. […].
(§3) The red chillies were exposed with Trioxygen for 2 minutes. The products were put under pressure of trioxygen gas for a span of 9 minutes to 26 minutes. Based on the commodity characteristics, the exposure of trioxygen gas was repeated 10 times. Trioxygen gas having a capacity 500 g/h was generated by the trioxygen generator (on site) of the system with a constant oxygen flow rate and delivered to the decontamination chamber through silicon tube. The whole red chillies were then treated to heated air.

[1] = C17H12O6 content of treated groundnuts; conditions: groundnut
Method: The data presented in Table-3 illustrates the efficiency of the system of the present disclosure in detoxifying contaminated groundnuts.
Three sets of C17H12O6 contaminated 3 kg's, 60 kg's and 60 kg's of groundnuts were separately pre-conditioned and decontaminated in the system. In this case, groundnuts were pre-conditioned and exposed with trioxygen gas for up to 5 minutes. The products were put under pressure of trioxygen gas for a span of 9 minutes to 26 minutes. Based on the commodity characteristics, the exposure of trioxygen gas was repeated 15 times. Trioxygen gas having capacity 500 g/h was generated by the trioxygen generator of the system (on site) with a constant oxygen flow rate and delivered to the decontamination chamber through silicon tube. All 3 sets of products were heated and then analyzed for the presence of the contaminant and the results obtained are summarized in Table-3.

yeast, mould = assay: Yeast & Mould Count of treated whole red chilli; conditions: whole red chilli 12 kg's
Method: as §1, §2, §3

coliform = assay: Coliform Count of treated whole red chilli; conditions: whole red chilli 12 kg's
Method: as §1, §2, §3

[2] = Pesticide residue in treated whole red chilli: Myclobutanil; conditions: whole red chilli 12 kg's, Trial 1; HOCL and Trioxygen simultaneously
Source text: (§4) This experiment illustrates the treatment of whole red chilli contaminated with pesticide residues.
(§5) The data presented in Table-6 illustrates the efficacy of the present disclosure in detoxifying contaminated whole red chillies. Sets of whole red chillies of 12 kg's contaminated with pesticides like Azoxystrobin, Imidacloprid Novaluron and Myclobutanil were used for the experiment. An inert gas (Nitrogen & Carbon-di-oxide) were introduced into the chamber filled with the material to drive out existing air and oxygen in the chamber. Pre-conditioning was carried out with HOCL and trioxygen being introduced simultaneously in decontamination chamber with faster decontamination process in the system with a shorter timeline protocol.
(§6) The red chillies were exposed with HOCL and Trioxygen simultaneously for 2 minutes. The products were put under pressure of 2 bar of trioxygen gas for a span of 9 minutes to 26 minutes. Based on the commodity characteristics, the exposure of trioxygen gas was repeated 10 times. Trioxygen gas having a capacity 500 g/h was generated by the trioxygen generator (on site) of the system with a constant oxygen flow rate and delivered to the decontamination chamber through silicon tube. The whole red chillies were then treated to heated air.

weevils and weevil eggs = assay: Shelf-Life Assessment of Corn; design: key to Visual observation: Powder at the bottom of bag / Weevils/Insects / Visual observation: Pin holes on grain: ✓ Not observed; x Observed; conditions: for Visual observation: Pin holes on grain / Visual observation: Powder at the bottom of bag / Weevils/Insects: Treated sample
Method: The data presented in Table-5 illustrates the efficiency of the system of the present disclosure in pre-conditioning and deactivation of weevils and weevil eggs results in delayed occurrence of insect infestation in grains.
Grains such as Dry corn, Groundnut, Rice & Wheat were separately pre-conditioned and decontaminated in the system of the present disclosure. Grains were exposed to trioxygen gas for up to 5 minutes. The products were put under pressure of trioxygen gas for a span of 9 minutes to 26 minutes. Trioxygen gas having capacity 500 g/h was generated by the trioxygen generator of the system (on site) with a constant oxygen flow rate and delivered to the decontamination chamber through silicon tube. All products were treated with hot air and then analyzed for the presence of the weevils and weevil eggs the results obtained are summarized in Table-5.

[3] = C17H12O6 content of treated whole red chilli; conditions: whole red chilli 12 kg's
Method: as §1, §2, §3

[4] = C17H12O6 content of treated corn
Method: The data presented in Table-4 illustrates the efficiency of the system of the present disclosure in detoxifying pre-conditioned contaminated corn.
Three sets of C17H12O6 contaminated 70 kg's of corn were separately decontaminated in the system of the present disclosure. In this case, corn samples were pre-conditioned with a pre-conditioning liquid and exposed to trioxygen gas for up to 5 minutes. The products were put under pressure of trioxygen gas for a span of 9 minutes to 26 minutes. Based on the commodity characteristics, the exposure of trioxygen gas was repeated 20 times. Trioxygen gas having capacity 500 g/h was generated by the trioxygen generator of the system (on site) with a constant oxygen flow rate and delivered to the decontamination chamber through silicon tube. All 3 sets of products were air dried and then analyzed for the presence of the contaminant and the results obtained are summarized in Table-4

E. coli = assay: Detection of E. coli in treated whole red chilli; conditions: whole red chilli 12 kg's, Trial 3
Method: as §1, §2, §3

[5] = Pesticide residue in treated whole red chilli: Imidacloprid; conditions: whole red chilli 12 kg's, Trial 1; HOCL and Trioxygen simultaneously
Source text: as §4, §5, §6

[6] = Pesticide residue in treated whole red chilli: Azoxystrobin; conditions: whole red chilli 12 kg's, Trial 1; HOCL and Trioxygen simultaneously
Source text: as §4, §5, §6

O=[O+][O-] [Trioxygen]
Aerobic Plate Count, % Reduction (aerobic micro-organisms; Trial 1): 97% | Aerobic Plate Count, Results After Treatment (aerobic micro-organisms; Trial 1, before treatment 9.82 × 10^8 cfu/g): 3.0 × 10^7 cfu/g | Total Plate Count, % Reduction (aerobic micro-organisms; Trial 2): 80% | Total Plate Count, Results After Treatment (aerobic micro-organisms; Trial 2, before treatment 1.85 × 10^8 cfu/g): 3.72 × 10^7 cfu/g | Total Plate Count, % Reduction (aerobic micro-organisms; Trial 3): 97% | Total Plate Count, Results After Treatment (aerobic micro-organisms; Trial 3, before treatment 2.4 × 10^7 cfu/g): 8.36 × 10^5 cfu/g | C17H12O6, % Reduction ([1]; Sr. No. 1, 3 kg's): 100% | C17H12O6, % Reduction ([1]; Sr. No. 2, 60 kg's): 93% | C17H12O6, % Reduction ([1]; Sr. No. 3, 60 kg's): 64% | Yeast & Mould Count, % Reduction (yeast, mould; Trial 1): 73% | Yeast & Mould Count, Results After Treatment (yeast, mould; Trial 1, before treatment 1.57 × 10^7 cfu/g): 4.18 × 10^6 cfu/g | Yeast & Mold Count, % Reduction (yeast, mould; Trial 2): 83% | Yeast & Mold Count, Results After Treatment (yeast, mould; Trial 2, before treatment 1.7 × 10^7 cfu/g): 2.9 × 10^6 cfu/g | Yeast & Mold Count, % Reduction (yeast, mould; Trial 3): 99% | Yeast & Mold Count, Results After Treatment (yeast, mould; Trial 3, before treatment 3.36 × 10^7 cfu/g): 1.87 × 10^5 cfu/g | Coliform Count, % Reduction (coliform; Trial 1): 93% | Coliform Count, Results After Treatment (coliform; Trial 1, before treatment 2.7 × 10^4 cfu/g): 1.82 × 10^3 cfu/g | Coliform Count, % Reduction (coliform; Trial 3): 100% | Coliform Count, Results After Treatment (coliform; Trial 3, before treatment 5.45 × 10^3 cfu/g): <10 cfu/g | Myclobutanil, % Reduction [2]: 100% | No weevil infestation in system treated samples up to (weevils and weevil eggs): up to 6 months | Treatment effective in delaying infestation up to (weevils and weevil eggs): up to 6 months | Remarks on Weevils/Insects, Treated (weevils and weevil eggs; Post 1.5 Months): No weevils/insects | Remarks on Weevils/Insects, Treated (weevils and weevil eggs; Post 2 Months): No weevils/insects | Remarks on Weevils/Insects, Treated (weevils and weevil eggs; Post 3 Months): No weevils/insects | Remarks on Weevils/Insects, Treated (weevils and weevil eggs; Post 5 Months): No weevils/insects | Remarks on Weevils/Insects, Treated: cream coloured insect observed alive (weevils and weevil eggs; Post 6 Months): 1 cream coloured | Remarks on Weevils/Insects, Treated: cream coloured insect observed alive (weevils and weevil eggs; Post 7 Months): 3 cream coloured | Visual observation: Pin holes on grain (weevils and weevil eggs; 1.5 Months): ✓ | Visual observation: Powder at the bottom of bag (weevils and weevil eggs; 1.5 Months): ✓ | Weevils/Insects (weevils and weevil eggs; 1.5 Months): ✓ | Visual observation: Pin holes on grain (weevils and weevil eggs; 2 Months): ✓ | Visual observation: Powder at the bottom of bag (weevils and weevil eggs; 2 Months): ✓ | Weevils/Insects (weevils and weevil eggs; 2 Months): ✓ | Visual observation: Pin holes on grain (weevils and weevil eggs; 3 Months): ✓ | Visual observation: Powder at the bottom of bag (weevils and weevil eggs; 3 Months): ✓ | Weevils/Insects (weevils and weevil eggs; 3 Months): ✓ | Visual observation: Pin holes on grain (weevils and weevil eggs; 5 Months): ✓ | Visual observation: Powder at the bottom of bag (weevils and weevil eggs; 5 Months): ✓ | Weevils/Insects (weevils and weevil eggs; 5 Months): ✓ | Visual observation: Pin holes on grain (weevils and weevil eggs; 6 Months): ✓ | Visual observation: Powder at the bottom of bag (weevils and weevil eggs; 6 Months): ✓ | Weevils/Insects (weevils and weevil eggs; 6 Months): x | Visual observation: Pin holes on grain (weevils and weevil eggs; 7 Months): ✓ | Visual observation: Powder at the bottom of bag (weevils and weevil eggs; 7 Months): ✓ | Weevils/Insects (weevils and weevil eggs; 7 Months): x | Number of weevils in treated sample compared to those in control, times less (weevils and weevil eggs; at month 7): 5 times | Number of weevils in treated sample compared to those in control, times less (weevils and weevil eggs; at month 8): 1.5 times | Number of weevils in treated sample compared to those in control (weevils and weevil eggs; at month 9): No difference | C17H12O6, % Reduction ([3]; Trial 2): 73% | C17H12O6, % Reduction ([3]; Trial 3): 76% | C17H12O6, % Reduction ([4]; Sr. No. 1, 70 kg's): 100% | C17H12O6, % Reduction ([4]; Sr. No. 2, 70 kg's): 85% | C17H12O6, % Reduction ([4]; Sr. No. 3, 70 kg's): 100% | Detection of E. coli, % Reduction (E. coli): 100% | Detection of E. coli, Results After Treatment (E. coli; before treatment Present/25 g): Absent/25 g | Imidacloprid, % Reduction [5]: 40% | Azoxystrobin, % Reduction [6]: 62%
